Some test systems named below: 786-0 renal; MALME-3M melanoma; SF-295 CNS; SNB-78 CNS; SR leukemia; DLD-1 colon; A549 NSCLC; HCC-2998 colon; HCT-15 colon; DMS 273 small cell lung; SK-MEL-2 melanoma.
Holding throughout (test): NCI tumour cell line growth inhibition, 48 h

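In this assay, cells in 96-well plates receive the compound at five concentrations for 48 hours. Endpoints are linearly interpolated between the surrounding concentrations. GI50: concentration for 50% inhibition of growth. At the TGI there is no net growth.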 A value given as a limit tells only on which side of the number the result lay.

On to `N#CC(C#N)=C1CCC2C(=C(C#N)C#N)CCC12` (stereo not drawn), for which the TGI in the experiment with 786-0 renal, in the experiment on MALME-3M melanoma, with SF-295 CNS, in the experiment with SNB-78 CNS, in the experiment on SR leukemia and in the experiment with DLD-1 colon was over 100 µM throughout. The TGI in the experiment on A549 NSCLC, in the experiment with HCC-2998 colon, with HCT-15 colon and with DMS 273 small cell lung was over 100 µM in each case.

Consider `CCC(C(=O)[C@@H](C)[C@@H](O)[C@H](C)[C@@H]1O[C@@H]([C@@H](CC)C(=O)ONC(=O)c2ccccc2)CC[C@@H]1C)[C@H]1O[C@]2(C=CC(=O)[C@]3(CC[C@@](C)([C@H]4CC[C@](O)(CC)[C@H](C)O4)O3)O2)[C@H](C)C[C@@H]1C` (stereo partly drawn), for which the GI50 with 786-0 renal was 0.981 µM; with MALME-3M melanoma, 0.168 µM; in the experiment on SF-295 CNS, 0.384 µM; with SR leukemia it was 0.0674 µM; with SK-MEL-2 melanoma, 1.07 µM; in the experiment on A549 NSCLC it was 0.168 µM. Besides, the GI50 in the experiment on HCC-2998 colon was 0.658 µM; in the experiment on HCT-15 colon, 0.349 µM. Further, the TGI turned out to be 2.26 µM in the experiment on 786-0 renal; 1.06 µM with MALME-3M melanoma; 2.08 µM in the experiment on SF-295 CNS; 0.617 µM in the experiment on SR leukemia; 2.91 µM with SK-MEL-2 melanoma; 1.63 µM with A549 NSCLC. Moreover, the TGI in the experiment with HCC-2998 colon was determined as 4.03 µM; in the experiment with HCT-15 colon, 1.61 µM.

Consider `CCCCC[C@H]1C/C=C2/C(=O)C(Cl)=C[C@@H]2C/C=C\CCCC(=O)O1`, for which the GI50 in the experiment with 786-0 renal is 0.47 µM; in the experiment on MALME-3M melanoma, 0.573 µM; with SF-295 CNS, 0.563 µM; in the experiment with SR leukemia, 0.122 µM; in the experiment with SK-MEL-2 melanoma, 0.439 µM; in the experiment with A549 NSCLC, 0.625 µM. For the same compound, the GI50 is 0.475 µM in the experiment on HCC-2998 colon and 0.284 µM with HCT-15 colon. For the same compound, the TGI amounted to 0.888 µM in the experiment with 786-0 renal; 1.53 µM in the experiment with MALME-3M melanoma; 1.53 µM in the experiment with SF-295 CNS; 2.68 µM with SR leukemia; 1.13 µM in the experiment on SK-MEL-2 melanoma; 1.87 µM in the experiment on A549 NSCLC. For the same compound, the TGI was found to be 0.855 µM with HCC-2998 colon and 0.895 µM in the experiment with HCT-15 colon.

For `CCN(CC)CCCNc1cc(OC)c(OC)c2cccnc12`, the GI50 in the experiment on 786-0 renal is 12 µM; in the experiment on MALME-3M melanoma, 12.8 µM; with SF-295 CNS, 7.74 µM; in the experiment with SR leukemia it was 1.22 µM; with SK-MEL-2 melanoma, 14.5 µM; in the experiment with A549 NSCLC, 10.5 µM. For the same compound, the GI50 in the experiment on HCC-2998 colon was 11.9 µM; in the experiment on HCT-15 colon, 14.1 µM. Besides, the TGI was 31.3 µM in the experiment on 786-0 renal; 31.1 µM in the experiment on MALME-3M melanoma; 33.1 µM in the experiment with SF-295 CNS; over 100 µM in the experiment on SR leukemia; 42.8 µM in the experiment with SK-MEL-2 melanoma; 38.1 µM in the experiment on A549 NSCLC. Further, the TGI in the experiment with HCC-2998 colon came to 25.7 µM; in the experiment on HCT-15 colon it was 49.8 µM.

`C(=C\c1ccc(OCC2CO2)cc1)/C1=NCOC1` (stereo not drawn): the GI50 in the experiment with 786-0 renal is 17.6 µM; in the experiment on MALME-3M melanoma it was 19.9 µM; with SF-295 CNS, 28.3 µM; in the experiment on SR leukemia, 3.05 µM; with SK-MEL-2 melanoma it was 10 µM; in the experiment on A549 NSCLC, 7.51 µM. The GI50 with HCC-2998 colon is 7.43 µM; with HCT-15 colon, 5.89 µM. For the same compound, the TGI in the experiment with 786-0 renal was 53.4 µM; with MALME-3M melanoma, 58.7 µM; with SF-295 CNS, 84.6 µM; with SR leukemia, 11.9 µM; with SK-MEL-2 melanoma, 36 µM; in the experiment on A549 NSCLC it was 39.1 µM. Also, the values for the TGI in the experiment with HCC-2998 colon and in the experiment on HCT-15 colon were 22.6 µM and 21.3 µM, respectively.

Turning to `c1ccc2c(c1)[nH]c1c3ccccc3sc21`, the TGI in the experiment on 786-0 renal, in the experiment with MALME-3M melanoma, in the experiment with SF-295 CNS, with SR leukemia, with SK-MEL-2 melanoma and with A549 NSCLC was over 100 µM in each case. Moreover, the TGI with HCC-2998 colon and in the experiment with HCT-15 colon was over 100 µM each time.

For the compound `Cn1cc(-c2nc(-c3cn(C)c4ncccc34)cs2)c2ccccc21`, the GI50 in the experiment on 786-0 renal is 2.68 µM; in the experiment with MALME-3M melanoma, 0.468 µM; with SF-295 CNS it was 1.22 µM; in the experiment with SR leukemia it was 0.703 µM; with SK-MEL-2 melanoma, 4.5 µM; in the experiment on A549 NSCLC it was 1.43 µM. Besides, the results for the GI50 in the experiment with HCC-2998 colon and with HCT-15 colon were 2.05 µM and 1.49 µM, respectively. The TGI is 13.7 µM in the experiment with 786-0 renal; 5.64 µM in the experiment with MALME-3M melanoma; 10.8 µM in the experiment with SF-295 CNS; over 100 µM in the experiment with SR leukemia; 68.7 µM with SK-MEL-2 melanoma; over 100 µM in the experiment with A549 NSCLC. In addition, the TGI with HCC-2998 colon and in the experiment on HCT-15 colon was over 100 µM each time.

Regarding `OCC1OC(n2cnc3c(NCc4ccco4)ncnc32)C(O)C1O` (stereo not drawn), the GI50 in the experiment on 786-0 renal was 2.16 µM; with MALME-3M melanoma, 5.91 µM; with SF-295 CNS it was 1.21 µM; with SR leukemia, 1.56 µM; in the experiment on SK-MEL-2 melanoma it was 5.43 µM; in the experiment on A549 NSCLC, 2.6 µM. For the same compound, the GI50 was 3.85 µM in the experiment with HCC-2998 colon and 0.524 µM in the experiment with HCT-15 colon. In addition, the TGI was determined as 10.3 µM in the experiment on 786-0 renal; 48.1 µM in the experiment on MALME-3M melanoma; 8.3 µM with SF-295 CNS; 6.92 µM in the experiment with SR leukemia; 31.6 µM in the experiment with SK-MEL-2 melanoma; 36.9 µM in the experiment with A549 NSCLC. Further, the results for the TGI with HCC-2998 colon and in the experiment on HCT-15 colon were 40 µM and over 28.1 µM, respectively.

As to `O=c1[nH]c2ccccc2n1C1CCN(CCOc2ccccc2)CC1`, the GI50 in the experiment with 786-0 renal was 43.9 µM; in the experiment with MALME-3M melanoma, 51.5 µM; with SF-295 CNS it was 2.87 µM; in the experiment with SR leukemia, 44 µM; in the experiment on SK-MEL-2 melanoma, 32.8 µM; in the experiment with A549 NSCLC, 58.3 µM. Moreover, the GI50 in the experiment on HCC-2998 colon is 26.9 µM; with HCT-15 colon it was 20.6 µM. The TGI in the experiment with 786-0 renal is over 100 µM; in the experiment with MALME-3M melanoma, over 100 µM; with SF-295 CNS, 19.2 µM; with SR leukemia, over 100 µM; with SK-MEL-2 melanoma, over 100 µM; with A549 NSCLC it was over 100 µM. The TGI in the experiment with HCC-2998 colon and with HCT-15 colon was over 100 µM each time.

As for `Nc1ncnc2c1ncn2CCCCC(=O)O`, the TGI in the experiment with 786-0 renal, in the experiment on MALME-3M melanoma, in the experiment with SF-295 CNS, in the experiment on SR leukemia, in the experiment on SK-MEL-2 melanoma and with A549 NSCLC was over 100 µM each time. Also, the TGI in the experiment with HCC-2998 colon and in the experiment on HCT-15 colon was over 100 µM in each case.

These data come from PubChem BioAssay (NCI).
